Data on 14 compounds can be found in patent publication US10350199B2, “3-(1h-pyrrolo[2,3-b]pyridin-2-yl)-1h-indazoles and therapeutic uses thereof” (Samumed, LLC, priority 2015, dated 2019).

The inhibition is the share of the control response that was lost under treatment.

What all share (assay type): cell-based
Assay [1] has as its system Wnt activity (Sp5-Luc reporter, SW480 colon carcinoma cells). The experiment in a line: Wnt activity screening assay, Sp5-Luc reporter gene in SW480 cells. As to conditions: Homo sapiens; for EC50: Sp5-Luc reporter, SW480 cells, overnight incubation; for inhibition at 10 µM: SW480, read-out: percent inhibition at 10 μM. Summed up:
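Read-out is BrightGlo luminescence, normalized to DMSO-treated cells and fitted by four-parameter variable-slope regression for EC50. Reporter cells: SW480 colon carcinoma carrying a stable lentiviral Sp5-Luc construct with eight TCF/LEF sites, seeded 4,000/well in 1% FBS, incubated overnight at 37° C.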
Background: A reporter such as luciferase makes a cellular process visible.

Another assay concerns SW480 colon cancer cells. The experiment in a line: Cell viability assay (CellTiter-Blue), SW480 cells, four days. As to conditions: Homo sapiens; for EC50: 96 h, SW480 cell viability, four days, CellTiter-Blue; for inhibition at 10 µM: SW480, read-out: percent inhibition at 10 μM. Summed up: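 Fluorescence from resazurin reduced to resorufin by metabolically active cells was the read-out, taken after ~3 h with CellTiter-Blue.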
In general terms: Resazurin is reduced to fluorescent resorufin, in cell work by metabolically active cells.

Assay [2] has as its system primary human fibroblasts derived from IPF patients (LL29 cells) treated with TGF-β1. The experiment in a line: Inhibition of the fibrotic process: αSMA staining in TGF-β1 treated LL29 fibroblasts. The conditions noted are these: Fibroblast; for EC50: 96 h, LL29 cells, TGF-β1 20 ng/mL, 4 days, % αSMA positive cells; for inhibition at 10 µM: read-out: percent inhibition at 10 μM. Summed up: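 Read-out after 4-day incubation: αSMA staining with 1 μM SYTOX green nuclear counterstain (30 min, room temperature). Cells were LL29 primary fibroblasts from IPF patients, in 1% FBS F12, exposed to TGF-β1 with test compound, referenced to TGF-β1/DMSO control wells.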

The subject of assay [3] is primary human mesenchymal stem cells (hMSCs). The assay is described as follows: Induction of chondrogenesis in human mesenchymal stem cells (nodule area, Rhodamine B/Nile Red). As to conditions: hMSC chondrogenesis; for EC50: concentration required to induce 50% levels of chondrogenesis of TGF-β3 positive control, read-out: Conc (nM) of 50% TGF-β3 activity; for Emax: relative to TGF-β3 (10 ng/mL) positive control, read-out: Max. Activity as % TGF-β3 activity. The text has this:
Representative compounds were screened using primary human mesenchymal stem cells (hMSCs) to determine their ability to induce chondrogenesis (process by which cartilage is developed).
Primary human mesenchymal stem cells (hMSCs) were purchased from Lonza (Walkersville, Md.) and expanded in Mesenchymal Stem Cell Growth Media (Lonza). Cells between passage 3 and 6 were used for the experiments.
Area of nodules in each well was normalized to the average of 3 DMSO treated wells on the same plate using Excel (Microsoft Inc.). The normalized averages (fold change over DMSO) of 2 or 3 replicate wells for each compound concentration were calculated. Due to solubility limitations of some of the compounds, curve fitting was incomplete leading to inaccurate EC50 determinations.
Using TGF-β3 as a positive control, the concentration of representative compounds required to induce 50% levels of chondrogenesis is reported. In addition, the maximum activity of each compound and the respective dose that each compound reached maximum chondrogenesis activity is reported.

The test system of assay [4] is IL-6 (THP-1 human monocyte cell line). The assay is described as follows: IL-6 inhibition in LPS-stimulated THP-1 cells (HTRF). The conditions noted are these: for EC50: IL-6 inhibition, LPS-stimulated THP-1 cells, HTRF; for inhibition at 10 µM: THP-1, read-out: percentage in parentheses beside EC50 >10 (IL-6 inhibition). Summed up: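 After 24 h in 1% FBS medium, cells had compound 2 h before 500 ng/mL LPS, then 22 h more at 37 °C. DMSO-normalized HTRF signal (665/620 nm ratio, anti-IL-6 antibody pair) was fitted with a variable-slope four-parameter model to give EC50.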
A general note: TR-FRET usually uses a lanthanide donor and a delayed reading to cut background.

For `CN1CCN(c2ccnc3[nH]c(-c4n[nH]c5ccc(-c6cncc(N)c6)cc45)cc23)CC1` [Compound 227, 5-(3-(4-(4-Methylpiperazin-1-yl)-1H-pyrrolo[2,3-b]pyridin-2-yl)-1H-indazol-5-yl)pyridin-3-amine], the EC50 is 1.17 µM in assay [1]; more than 10 µM in the assay with SW480 colon cancer cells; more than 10 µM in assay [2]; 100 nM in assay [3]; 7.34 µM in assay [4]. Moreover, the inhibition at 10 µM with SW480 colon cancer cells came out at 42.3%; in assay [2] it was 51.2%. Also, the Emax in assay [3] came to 50%.

With `CN1CCN(c2ccnc3[nH]c(-c4n[nH]c5ccc(-c6cncc(CN7CCCC7)c6)cc45)cc23)CC1` [Compound 238, 3-(4-(4-Methylpiperazin-1l-yl)-1H-pyrrolo[2,3-b]pyridin-2-yl)-5-(5-(pyrrolidin-1-ylmethyl)pyridin-3-yl)-1H-indazole], the EC50 in assay [1] was 3.48 µM; in the assay with SW480 colon cancer cells, 4.34 µM; in assay [2], 1.92 µM; in assay [4], more than 10 µM. Besides, the Emax in assay [3] stood at 22%. Besides, the inhibition at 10 µM in assay [4] stood at 29.4%.

As to `CN1CCN(c2ccnc3[nH]c(-c4n[nH]c5ccc(-c6cncc(CNCc7ccccc7)c6)cc45)cc23)CC1` [Compound 248, N-Benzyl-1-(5-(3-(4-(4-methylpiperazin-1-yl)-1H-pyrrolo[2,3-b]pyridin-2-yl)-1H-indazol-5-yl)pyridin-3-yl)methanamine], the EC50 worked out at 3.37 µM in assay [1], 2.17 µM in the assay with SW480 colon cancer cells, 2.26 µM in assay [2] and 7.73 µM in assay [4]. The Emax in assay [3] was 17%.

In the case of `Nc1cncc(-c2ccc3[nH]nc(-c4cc5cccnc5[nH]4)c3c2)c1` [Compound 255, 5-(3-(1H-Pyrrolo[2,3-b]pyridin-2-yl)-1H-indazol-5-yl)pyridin-3-amine], the EC50 in assay [1] was 0.102 µM; in the assay with SW480 colon cancer cells, 0.632 µM; in assay [2], 0.138 µM; in assay [4], 0.015 µM. Besides, the Emax in assay [3] stood at 36%.

Take `CC(C)C(=O)Nc1cncc(-c2ccc3[nH]nc(-c4cc5cccnc5[nH]4)c3c2)c1` [Compound 261, N-(5-(3-(1H-Pyrrolo[2,3-b]pyridin-2-yl)-1H-indazol-5-yl)pyridin-3-yl) isobutyramide]: the EC50 is 0.178 µM in assay [1]; 0.405 µM in the assay with SW480 colon cancer cells; 0.102 µM in assay [2]; 900 nM in assay [3]; 0.009 µM in assay [4]. Further, in assay [3], the Emax worked out at 131%.

In the case of `c1cnc2[nH]c(-c3n[nH]c4ccc(-c5cncc(CN6CCCCC6)c5)cc34)cc2c1` [Compound 267, 5-(5-(Piperidin-1-ylmethyl)pyridin-3-yl)-3-(1H-pyrrolo[2,3-b]pyridin-2-yl)-1H-indazole], the EC50 in assay [1] was determined as 1.67 µM; in the assay with SW480 colon cancer cells, 0.675 µM; in assay [2] it was 0.458 µM; in assay [3], 10 nM; in assay [4], 0.177 µM. In addition, the Emax in assay [3] amounted to 51%.

`CCCCC(=O)Nc1cncc(-c2ccc3[nH]nc(-c4cc5cccnc5[nH]4)c3c2)c1` [Compound 271, N-(5-(3-(1H-Pyrrolo[2,3-b]pyridin-2-yl)-1H-indazol-5-yl)pyridin-3-yl) pentanamide]: the EC50 in assay [1] is 0.324 µM; in the assay with SW480 colon cancer cells it was 1.06 µM; in assay [2], 0.712 µM; in assay [4] it was 0.023 µM. Besides, in assay [3], the Emax amounted to 34%.

Regarding `O=C(Nc1cncc(-c2ccc3[nH]nc(-c4cc5cccnc5[nH]4)c3c2)c1)C1CCCC1` [Compound 274, N-(5-(3-(1H-Pyrrolo[2,3-b]pyridin-2-yl)-1H-indazol-5-yl)pyridin-3-yl) cyclopentanecarboxamide], the EC50 in assay [1] worked out at 0.271 µM; in the assay on SW480 colon cancer cells, 0.656 µM; in assay [2], 0.427 µM; in assay [4], 0.018 µM. Besides, the Emax in assay [3] worked out at 30%.

With `c1cnc2[nH]c(-c3n[nH]c4ccc(-c5cncnc5)cc34)cc2c1` [Compound 279, 5-(Pyrimidin-5-yl)-3-(1H-pyrrolo[2,3-b]pyridin-2-yl)-1H-indazole], the values for the inhibition at 10 µM (in assay [1]; in the assay on SW480 colon cancer cells) were 16.6% and 17.9%, respectively. Also, the EC50 in assay [1] was more than 10 µM; with SW480 colon cancer cells it was more than 10 µM; in assay [2], 9.84 µM; in assay [3] it was 10 nM; in assay [4] it was 0.14 µM. Also, the Emax in assay [3] came out at 84%.

`c1cncc(-c2ccc3[nH]nc(-c4cc5c(-c6ccsc6)ccnc5[nH]4)c3c2)c1` [Compound 284, 5-(Pyridin-3-yl)-3-(4-(thiophen-3-yl)-1H-pyrrolo[2,3-b]pyridin-2-yl)-1H-indazole]: the inhibition at 10 µM in assay [1] worked out at 38%. For the same compound, the EC50 in assay [1] is more than 10 µM; in the assay with SW480 colon cancer cells, 0.352 µM; in assay [2], 2.2 µM; in assay [4] it was 0.347 µM. Besides, in assay [3], the Emax is 39%.

Turning to `c1cc(-c2ccsc2)c2cc(-c3n[nH]c4ccc(-c5cncc(CN6CCCCC6)c5)cc34)[nH]c2n1` [Compound 295, 5-(5-(Piperidin-1-ylmethyl)pyridin-3-yl)-3-(4-(thiophen-3-yl)-1H-pyrrolo[2,3-b]pyridin-2-yl)-1H-indazole], the inhibition at 10 µM in assay [1] turned out to be 37.1%; in the assay on SW480 colon cancer cells it was 2.1%; in assay [2], 16.8%; in assay [4] it was 34.9%. The EC50 in assay [1] is more than 10 µM; with SW480 colon cancer cells, more than 10 µM; in assay [2] it was more than 10 µM; in assay [3] it was 30 nM; in assay [4] it was more than 10 µM. Moreover, the Emax in assay [3] was determined as 73%.

Regarding `Cc1ccncc1-c1ccc2[nH]nc(-c3cc4c(-c5ccoc5)ccnc4[nH]3)c2c1` [Compound 313, 3-(4-(Furan-3-yl)-1H-pyrrolo[2,3-b]pyridin-2-yl)-5-(4-methylpyridin-3-yl)-1H-indazole], the EC50 in assay [1] is 4.29 µM; in the assay on SW480 colon cancer cells, more than 10 µM; in assay [2], more than 10 µM; in assay [3] it was 100 nM; in assay [4] it was 1.01 µM. Besides, the inhibition at 10 µM is 0% with SW480 colon cancer cells and 36.3% in assay [2]. Also, the Emax in assay [3] is 67%.

Consider `CC(C)(C)CC(=O)Nc1cncc(-c2ccc3[nH]nc(-c4cc5c(-c6ccoc6)ccnc5[nH]4)c3c2)c1` [Compound 324, N-(5-(3-(4-(Furan-3-yl)-1H-pyrrolo[2,3-b]pyridin-2-yl)-1H-indazol-5-yl)pyridin-3-yl)-3,3-dimethylbutanamide], for which the EC50 is 0.89 µM in assay [1], 9.2 µM in the assay with SW480 colon cancer cells, more than 10 µM in assay [2] and 0.694 µM in assay [4]. In assay [2], the inhibition at 10 µM turned out to be 0%. In addition, the Emax in assay [3] was 21%.

For the compound `Fc1cccc(-c2ccnc3[nH]c(-c4n[nH]c5ccc(C6CCNCC6)cc45)cc23)c1` [Compound 505, 3-(4-(3-Fluorophenyl)-1H-pyrrolo[2,3-b]pyridin-2-yl)-5-(piperidin-4-yl)-1H-indazole], the EC50 in assay [1] came out at 0.563 µM; in the assay with SW480 colon cancer cells it was 0.465 µM; in assay [2], 0.335 µM; in assay [3], 900 nM; in assay [4] it was 0.166 µM. In addition, in assay [3], the Emax was determined as 103%.
